HELM strings list units from the 5' end as sugar, base in round brackets, then linkage (d deoxyribose, r ribose, m 2'-O-methyl, p phosphodiester). Strings are as the collection lists them; they lack the last nucleoside at the 3' end of the tested compound. [moe] = 2'-O-(2-methoxyethyl) (MOE); [sp] = phosphorothioate linkage; [m5C] = 5-methylcytosine

This data set has as its target PRNP. The data set can be described thus: mouse, dose not given. The following applies: ASO.

Turning to “RNA1{[moe](G)[sp].[moe](T)p.[moe](G)p.[moe](A)p.[moe](A)[sp].d(T)[sp].d(A)[sp].d(T)[sp].d(G)[sp].d(T)[sp].d([m5C])[sp].d([m5C])[sp].d(T)[sp].d([m5C])[sp].d(T)[sp].[moe](A)p.[moe](G)p.[moe]([m5C])[sp].[moe]([m5C])}$$$$ (last 3' nucleoside missing)”, the 3 h FOB score is 2.5 score 0-7.

Substance “RNA1{[moe](G)[sp].[moe](T)p.[moe](G)p.[moe](A)p.[moe]([m5C])[sp].d(A)[sp].d(A)[sp].d(T)[sp].d(A)[sp].d(T)[sp].d(T)[sp].d(T)[sp].d(A)[sp].d([m5C])[sp].d(T)[sp].[moe]([m5C])p.[moe](T)p.[moe](T)[sp].[moe](G)}$$$$ (last 3' nucleoside missing)” registered a 3 h FOB score of 1 score 0-7.

Regarding “RNA1{[moe](G)[sp].[moe](T)p.[moe](G)p.[moe](G)p.[moe](A)[sp].d(A)[sp].d(G)[sp].d(A)[sp].d([m5C])[sp].d(T)[sp].d(T)[sp].d(G)[sp].d(T)[sp].d(G)[sp].d(T)[sp].[moe](T)p.[moe](A)p.[moe](G)[sp].[moe](A)}$$$$ (last 3' nucleoside missing)”, the 3 h FOB score worked out at 5.25 score 0-7.

The substance “RNA1{[moe](G)[sp].[moe](T)p.[moe](G)p.[moe](T)p.[moe](T)[sp].d(G)[sp].d(T)[sp].d(G)[sp].d(A)[sp].d([m5C])[sp].d(A)[sp].d(A)[sp].d(T)[sp].d(A)[sp].d(T)[sp].[moe](T)p.[moe](T)p.[moe](A)[sp].[moe]([m5C])}$$$$ (last 3' nucleoside missing)” registered a 3 h FOB score of 1 score 0-7.

Consider “RNA1{[moe](G)[sp].[moe](T)p.[moe](G)p.[moe](T)p.[moe](T)[sp].d([m5C])[sp].d([m5C])[sp].d(A)[sp].d(T)[sp].d([m5C])[sp].d([m5C])[sp].d(T)[sp].d([m5C])[sp].d([m5C])[sp].d(A)[sp].[moe](G)p.[moe](G)p.[moe]([m5C])[sp].[moe](T)}$$$$ (last 3' nucleoside missing)”, for which the 3 h FOB score worked out at 1 score 0-7.

The substance “RNA1{[moe](G)[sp].[moe](T)p.[moe](G)p.[moe](T)p.[moe]([m5C])[sp].d(A)[sp].d(T)[sp].d(A)[sp].d(A)[sp].d(T)[sp].d(T)[sp].d(T)[sp].d(T)[sp].d([m5C])[sp].d(T)[sp].[moe](T)p.[moe](A)p.[moe](G)[sp].[moe]([m5C])}$$$$ (last 3' nucleoside missing)” returned a 3 h FOB score of 0.5 score 0-7.

“RNA1{[moe](G)[sp].[moe](T)p.[moe](G)p.[moe](T)p.[moe]([m5C])p.[moe](A)p.d(T)[sp].d(A)[sp].d(A)[sp].d(T)[sp].d(T)[sp].d(T)[sp].d(T)[sp].d([m5C])[sp].d(T)[sp].d(T)[sp].[moe](A)p.[moe](G)[sp].[moe]([m5C])}$$$$ (last 3' nucleoside missing)” showed a 3 h FOB score of 0 score 0-7.

Consider “RNA1{[moe](G)[sp].[moe](T)p.[moe](G)p.[moe](T)p.[moe]([m5C])p.d(A)[sp].d(T)[sp].d(A)[sp].d(A)[sp].d(T)[sp].d(T)[sp].d(T)[sp].d(T)[sp].d([m5C])[sp].[moe](T)[sp].[moe](T)p.[moe](A)p.[moe](G)}$$$$ (last 3' nucleoside missing)”, for which the 3 h FOB score stood at 0 score 0-7.

“RNA1{[moe](G)[sp].[moe](T)p.[moe](G)p.[moe](T)p.d([m5C])[sp].d(A)[sp].d(T)[sp].d(A)[sp].d(A)[sp].d(T)[sp].d(T)[sp].d(T)[sp].d(T)[sp].d([m5C])[sp].[moe](T)p.[moe](T)p.[moe](A)p.[moe](G)[sp].[moe]([m5C])}$$$$ (last 3' nucleoside missing)” gave a 3 h FOB score of 0 score 0-7.

The substance “RNA1{[moe](G)[sp].[moe](T)p.[moe](G)p.[moe]([m5C])p.[moe](T)[sp].d(T)[sp].d(A)[sp].d(T)[sp].d(T)[sp].d(A)[sp].d(T)[sp].d(T)[sp].d([m5C])[sp].d(A)[sp].d(T)[sp].[moe](G)p.[moe](T)p.[moe](T)[sp].[moe]([m5C])}$$$$ (last 3' nucleoside missing)” had a 3 h FOB score of 0.5 score 0-7.

As to “RNA1{[moe](G)[sp].[moe](T)p.[moe](T)p.[moe](A)p.[moe](G)[sp].d([m5C])[sp].d(T)[sp].d(T)[sp].d(T)[sp].d(T)[sp].d(T)[sp].d(T)[sp].d(T)[sp].d([m5C])[sp].d(A)[sp].[moe]([m5C])p.[moe](T)p.[moe](G)[sp].[moe](T)}$$$$ (last 3' nucleoside missing)”, the 3 h FOB score is 0.5 score 0-7.

For “RNA1{[moe](G)[sp].[moe](T)p.[moe](T)p.[moe](G)p.[moe](A)[sp].d(T)[sp].d(T)[sp].d(T)[sp].d(T)[sp].d(T)[sp].d([m5C])[sp].d([m5C])[sp].d(A)[sp].d(G)[sp].d(A)[sp].[moe](A)p.[moe](G)p.[moe](T)[sp].[moe](T)}$$$$ (last 3' nucleoside missing)”, the 3 h FOB score was 3.25 score 0-7.

As for “RNA1{[moe](G)[sp].[moe](T)p.[moe](T)p.[moe](G)p.[moe](T)[sp].d(G)[sp].d(A)[sp].d([m5C])[sp].d(A)[sp].d(A)[sp].d(T)[sp].d(A)[sp].d(T)[sp].d(T)[sp].d(T)[sp].[moe](A)p.[moe]([m5C])p.[moe](T)[sp].[moe]([m5C])}$$$$ (last 3' nucleoside missing)”, the 3 h FOB score was 0 score 0-7.

The substance “RNA1{[moe](G)[sp].[moe](T)p.[moe](T)p.[moe](G)p.[moe](T)[sp].d(T)[sp].d(G)[sp].d(A)[sp].d(T)[sp].d(T)[sp].d(T)[sp].d(T)[sp].d(T)[sp].d([m5C])[sp].d([m5C])[sp].[moe](A)p.[moe](G)p.[moe](A)[sp].[moe](A)}$$$$ (last 3' nucleoside missing)” returned a 3 h FOB score of 4.75 score 0-7.

In turn, “RNA1{[moe](G)[sp].[moe](T)p.[moe](T)p.[moe](G)p.[moe](T)[sp].d(T)[sp].d(G)[sp].d(T)[sp].d(T)[sp].d(T)[sp].d([m5C])[sp].d(T)[sp].d(T)[sp].d(T)[sp].d(T)[sp].[moe]([m5C])p.[moe](T)p.[moe](G)[sp].[moe](G)}$$$$ (last 3' nucleoside missing)” registered a 3 h FOB score of 6 score 0-7.

“RNA1{[moe](G)[sp].[moe](T)p.[moe](T)p.[moe](T)p.[moe]([m5C])[sp].d([m5C])[sp].d([m5C])[sp].d(A)[sp].d([m5C])[sp].d(A)[sp].d(T)[sp].d(A)[sp].d(T)[sp].d(T)[sp].d(A)[sp].[moe](A)p.[moe](G)p.[moe](T)[sp].[moe](A)}$$$$ (last 3' nucleoside missing)” had a 3 h FOB score of 1 score 0-7.

As to “RNA1{[moe](G)[sp].[moe](T)p.[moe](T)p.[moe]([m5C])p.[moe](A)[sp].d(G)[sp].d(A)[sp].d(G)[sp].d(A)[sp].d(A)[sp].d(T)[sp].d([m5C])[sp].d(T)[sp].d(T)[sp].d(T)[sp].[moe]([m5C])p.[moe](A)p.[moe]([m5C])[sp].[moe]([m5C])}$$$$ (last 3' nucleoside missing)”, the 3 h FOB score is 0 score 0-7.

Take “RNA1{[moe](G)[sp].[moe](T)p.[moe](T)p.[moe]([m5C])p.[moe](A)[sp].d(G)[sp].d(T)[sp].d(G)[sp].d(T)[sp].d(T)[sp].d(G)[sp].d(T)[sp].d(G)[sp].d(A)[sp].d([m5C])[sp].[moe](A)p.[moe](A)p.[moe](T)[sp].[moe](A)}$$$$ (last 3' nucleoside missing)”: the 3 h FOB score turned out to be 6.75 score 0-7.

With “RNA1{[moe](G)[sp].[moe](T)p.[moe](T)p.[moe]([m5C])p.[moe](A)[sp].d([m5C])[sp].d(T)[sp].d(G)[sp].d(T)[sp].d(G)[sp].d(A)[sp].d(A)[sp].d(T)[sp].d(A)[sp].d(T)[sp].[moe](G)p.[moe](T)p.[moe]([m5C])[sp].[moe]([m5C])}$$$$ (last 3' nucleoside missing)”, the 3 h FOB score came to 4.25 score 0-7.

“RNA1{[moe](G)[sp].[moe](T)p.[moe](T)p.[moe]([m5C])p.[moe](T)[sp].d(A)[sp].d(A)[sp].d(T)[sp].d(T)[sp].d(T)[sp].d(T)[sp].d(A)[sp].d(G)[sp].d(A)[sp].d(T)[sp].[moe]([m5C])p.[moe](A)p.[moe](T)[sp].[moe](T)}$$$$ (last 3' nucleoside missing)” had a 3 h FOB score of 2 score 0-7.

Take “RNA1{[moe](G)[sp].[moe](T)p.[moe](T)p.[moe]([m5C])p.[moe](T)[sp].d(T)[sp].d(T)[sp].d(T)[sp].d([m5C])[sp].d(T)[sp].d(T)[sp].d(T)[sp].d(G)[sp].d([m5C])[sp].d(A)[sp].[moe]([m5C])p.[moe](A)p.[moe]([m5C])[sp].[moe](T)}$$$$ (last 3' nucleoside missing)”: the 3 h FOB score was 6.25 score 0-7.

“RNA1{[moe](G)[sp].[moe](T)p.[moe]([m5C])p.[moe](A)p.[moe](A)[sp].d(A)[sp].d(A)[sp].d(T)[sp].d([m5C])[sp].d(A)[sp].d(T)[sp].d(T)[sp].d([m5C])[sp].d(T)[sp].d(G)[sp].[moe](G)p.[moe](T)p.[moe](T)[sp].[moe](T)}$$$$ (last 3' nucleoside missing)” yielded a 3 h FOB score of 1 score 0-7.

“RNA1{[moe](G)[sp].[moe](T)p.[moe]([m5C])p.[moe](A)p.[moe](G)[sp].d(T)[sp].d(T)[sp].d(T)[sp].d(T)[sp].d(T)[sp].d([m5C])[sp].d([m5C])[sp].d([m5C])[sp].[moe]([m5C])p.[moe](A)p.[moe]([m5C])[sp].[moe](A)}$$$$ (last 3' nucleoside missing)” registered a 3 h FOB score of 0 score 0-7.

With “RNA1{[moe](G)[sp].[moe](T)p.[moe]([m5C])p.[moe](A)p.[moe](G)[sp].d(T)[sp].d(T)[sp].d(T)[sp].d(T)[sp].d(T)[sp].d([m5C])[sp].d([m5C])[sp].d([m5C])[sp].d([m5C])[sp].d(A)[sp].[moe]([m5C])p.[moe](A)p.[moe](T)[sp].[moe](A)}$$$$ (last 3' nucleoside missing)”, the 3 h FOB score worked out at 1 score 0-7.

“RNA1{[moe](G)[sp].[moe](T)p.[moe]([m5C])p.[moe](A)p.[moe](G)p.[moe](T)p.d(T)[sp].d(T)[sp].d(T)[sp].d(T)[sp].d([m5C])[sp].d([m5C])[sp].d([m5C])[sp].d([m5C])[sp].d(A)[sp].d([m5C])[sp].[moe](A)p.[moe](T)[sp].[moe](A)}$$$$ (last 3' nucleoside missing)” yielded a 3 h FOB score of 0 score 0-7.

(Values after the OligoGym collection.)
